Reference: ChEMBL document CHEMBL3112457, “Inhibition of hypoxia-inducible factor prolyl hydroxylase domain oxygen sensors: tricking the body into mounting orchestrated survival and repair responses” (J Med Chem, 2013)

What was measured:
Egl nine homolog 1 [1] = target: T1, Egl nine homolog 1 (Homo sapiens, UniProt Q9GZT9); assay: Inhibition of FLAG-tagged full length PHD2 (unknown origin) expressed in Sf9 cells using HIF-1alpha peptide as substrate preincubated for 30 mins followed by substrate addition measured after 2 hrs by HTRF assay in presence of 2-oxoglutarate
Target sequence in this assay (Q9GZT9 whole entry): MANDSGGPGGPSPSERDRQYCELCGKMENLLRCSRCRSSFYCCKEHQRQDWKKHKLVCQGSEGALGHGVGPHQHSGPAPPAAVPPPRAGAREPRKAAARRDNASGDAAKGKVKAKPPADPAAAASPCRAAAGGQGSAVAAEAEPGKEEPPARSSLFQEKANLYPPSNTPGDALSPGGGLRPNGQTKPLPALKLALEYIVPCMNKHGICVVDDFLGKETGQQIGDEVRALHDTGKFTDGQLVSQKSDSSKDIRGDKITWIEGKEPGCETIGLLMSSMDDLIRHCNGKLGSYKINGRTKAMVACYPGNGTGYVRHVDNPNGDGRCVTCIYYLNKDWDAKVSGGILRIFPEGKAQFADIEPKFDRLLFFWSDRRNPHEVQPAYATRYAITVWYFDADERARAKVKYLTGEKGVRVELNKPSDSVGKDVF

Prolyl hydroxylase EGLN3 [2] = target: T2, Prolyl hydroxylase EGLN3 (Homo sapiens, UniProt Q9H6Z9); assay: Inhibition of 6His-tagged PHD3 (1 to 239) (unknown origin)-mediated Cy5CODD hydroxylation expressed in Escherichia coli preincubated for 3 mins followed by substrate addition measured after 30 mins
Prolyl hydroxylase EGLN3 [3] = target: T2, Prolyl hydroxylase EGLN3; assay: Inhibition of PHD3 in human Hep3B cells assessed as stimulation of EPO release after 48 hrs by ELISA; assay type: cell-based, Hep 3B2
Prolyl hydroxylase EGLN3 [4] = target: T2, Prolyl hydroxylase EGLN3; assay: Inhibition of 6His-tagged PHD3 (1 to 239) (unknown origin)-mediated Cy5CODD hydroxylation expressed in Escherichia coli after 30 mins
Egl nine homolog 1 [5] = target: T1, Egl nine homolog 1; assay: Inhibition of PHD2 (unknown origin) using P564 HIFlalpha as substrate after 1 hr by TR-FRET assay
Target sequence in this assay (Q9GZT9 whole entry): as above

Hep 3B2 = assay: Inhibition of prolyl hydroxylase in human Hep3B cells assessed as stimulation of EPO release at 100 uM after 24 hrs relative to control; assay type: cell-based; parameters: scale not given: the % may be the effect or the level left
[6] = Inhibition of prolyl hydroxylase (unknown origin) using biotin-labeled DLDLEMLAPYIPMDDDFQL as substrate after 60 mins by FRET assay; parameters: species or system Homo sapiens
Egl nine homolog 1 [7] = target: T1, Egl nine homolog 1; assay: Inhibition of HIF-PH2 (unknown origin) expressed in insect Hi5 cells using [methoxycoumarin]-DLDLEALAPYIPADDDFQL-amide as substrate at 7.4 uM by [14]CO2 capture assay relative to control; conditions: BTI-TN-5B1-4
Target sequence in this assay (Q9GZT9 2-426 limits assumed): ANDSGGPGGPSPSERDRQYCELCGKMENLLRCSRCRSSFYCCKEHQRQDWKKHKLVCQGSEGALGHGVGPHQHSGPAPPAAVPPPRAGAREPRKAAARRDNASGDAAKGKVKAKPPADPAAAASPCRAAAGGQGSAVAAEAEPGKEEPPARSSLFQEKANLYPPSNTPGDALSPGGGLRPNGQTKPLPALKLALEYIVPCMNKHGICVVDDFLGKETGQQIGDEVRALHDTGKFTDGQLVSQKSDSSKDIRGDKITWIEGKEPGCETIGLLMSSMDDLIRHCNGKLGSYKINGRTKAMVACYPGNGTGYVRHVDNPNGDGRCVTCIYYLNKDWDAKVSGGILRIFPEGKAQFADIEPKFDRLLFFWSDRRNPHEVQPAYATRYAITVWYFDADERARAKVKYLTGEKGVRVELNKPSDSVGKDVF

Prolyl hydroxylase EGLN3 [8] = target: T2, Prolyl hydroxylase EGLN3; assay: Inhibition of full length human recombinant EGLN-3 using DLDLEALAPYIPADDDFQL as substrate after 20 mins by mass spectrophotometric analysis
Egl nine homolog 1 [9] = target: T1, Egl nine homolog 1; assay: Inhibition of human recombinant EGLN-1 using DLDLEALAPYIPADDDFQL as substrate after 20 mins by mass spectrophotometric analysis
Target sequence in this assay (Q9GZT9 whole entry): as the sequence (Q9GZT9 whole entry) above

Egl nine homolog 1 [10] = target: T1, Egl nine homolog 1; assay: Inhibition of HIF-PH2 (unknown origin) expressed in insect Hi5 cells using [methoxycoumarin]-DLDLEALAPYIPADDDFQL-amide as substrate at 22 uM by [14]CO2 capture assay relative to control; conditions: BTI-TN-5B1-4
Target sequence in this assay (Q9GZT9 2-426 limits assumed): as the sequence (Q9GZT9 2-426 limits assumed) above

Homo sapiens [11] = species on record: Homo sapiens; assay: Inhibition of prolyl hydroxylase (unknown origin) assessed as stimulation of EPO release by cell-based assay
Egl nine homolog 1 [12] = target: T1, Egl nine homolog 1; assay: Inhibition of PHD2 (unknown origin)
Target sequence in this assay (Q9GZT9 whole entry): as the sequence (Q9GZT9 whole entry) above

Homo sapiens [13] = assay: Reduction in total cholesterol level in chronic kidney disease patient administered for 16 to 24 weeks relative to control; assay type: functional; parameters: scale not given: the % may be the effect or the level left
Homo sapiens [14] = assay: Antianemic activity in end stage renal disease patient receiving hemodialysis assessed as increase in hemoglobin level at 1.5 to 2 mg/kg, po administered thrice weekly for 6 weeks relative to control; assay type: functional; conditions: dose mg/kg 1.5-2
Homo sapiens [15] = assay: Antianemic activity in human assessed as change in hemoglobin level administered thrice weekly for 12 weeks; assay type: functional
Homo sapiens [16] = assay: Antianemic activity in chronic kidney disease patient assessed as hemoglobin level administered for 4 weeks; assay type: functional
Homo sapiens [17] = assay: Antianemic activity in nondialysis chronic kidney disease patient assessed as increase in hemoglobin level at 60 to 150 mg administered twice/thrice weekly for 16 to 24 weeks; assay type: functional
[18] = Inhibition of human CPH2 assessed as 2-Oxoglutarate conversion to succinic acid after 1 hr by radiometric HPLC analysis
[19] = Inhibition of human CPH1 assessed as 2-Oxoglutarate conversion to succinic acid after 1 hr by radiometric HPLC analysis
[20] = Inhibition of prolyl hydroxylase in human Hep3B cells assessed as stimulation of EPO release at 100 uM after 24 hrs by ELISA relative to control; assay type: cell-based, Hep 3B2
Egl nine homolog 1 [21] = target: T1, Egl nine homolog 1; assay: Inhibition of HIF-PH2 (unknown origin) expressed in insect Hi5 cells using [methoxycoumarin]-DLDLEALAPYIPADDDFQL-amide as substrate at 22.2 uM by [14]CO2 capture assay relative to control; conditions: BTI-TN-5B1-4
Target sequence in this assay (Q9GZT9 2-426 limits assumed): as the sequence (Q9GZT9 2-426 limits assumed) above

Egl nine homolog 1 [22] = target: T1, Egl nine homolog 1; assay: Inhibition of PHD2 in HEK293 cells assessed as VEGF release by immunoassay; assay type: cell-based
Target sequence in this assay (Q9GZT9 whole entry): as the sequence (Q9GZT9 whole entry) above

Mus musculus = assay: Suppression of TNBS-induced colitis in mouse assessed as increase in hematocrit at 1 to 5 mg/kg, po after 7 days relative to control; assay type: functional; conditions: dose mg/kg 1-5
Homo sapiens [23] = assay: Antianemic activity in chronic kidney disease patient assessed as increase in hemoglobin level at 375 mg, po administered twice weekly for 15 weeks (reference value: 0.2 g/dl); assay type: functional
Homo sapiens [24] = assay: Antianemic activity in chronic kidney disease patient assessed as increase in hemoglobin level at 1250 mg, po administered twice weekly for 15 weeks measured after 4 weeks relative to control; assay type: functional
Homo sapiens [25] = assay: Antianemic activity in chronic kidney disease patient assessed as increase in hemoglobin level at 20 mg/kg, po administered 3 times per week for 4 weeks (reference value: 0.35 g/dL); assay type: functional
Homo sapiens [26] = assay: Antianemic activity in chronic kidney disease patient assessed as increase in hemoglobin level at 625 mg, po administered twice weekly for 15 weeks measured after 4 weeks relative to control; assay type: functional
Homo sapiens [27] = assay: Antianemic activity in chronic kidney disease patient assessed as increase in hemoglobin level at 6 to 20 mg/kg administered twice weekly for 4 weeks relative to control; assay type: functional; conditions: dose mg/kg 6-20
Homo sapiens [28] = assay: Antianemic activity in chronic kidney disease patient assessed as increase in hemoglobin level at 1250 mg, po administered twice weekly for 15 weeks (reference value: 0.2 g/dl); assay type: functional
Homo sapiens [29] = assay: Increase in plasma EPO level in anephric end stage renal disease patient at 20 mg/kg, po administered for 7 days relative to control; assay type: functional
Homo sapiens [30] = assay: Antianemic activity in chronic kidney disease patient assessed as increase in hemoglobin level at 625 mg, po administered twice weekly for 15 weeks (reference value: 0.2 g/dl); assay type: functional
Homo sapiens [31] = assay: Antianemic activity in chronic kidney disease patient assessed as increase in hemoglobin level at 375 mg, po administered twice weekly for 15 weeks measured after 4 weeks relative to control; assay type: functional
Homo sapiens [32] = assay: Increase in plasma EPO level in human at 20 mg/kg, po administered for 7 days relative to control; assay type: functional
Homo sapiens [33] = assay: Increase in plasma EPO level in nephric end stage renal disease patient at 20 mg/kg, po administered for 7 days relative to control; assay type: functional

T2 sequence (Q9H6Z9 whole entry): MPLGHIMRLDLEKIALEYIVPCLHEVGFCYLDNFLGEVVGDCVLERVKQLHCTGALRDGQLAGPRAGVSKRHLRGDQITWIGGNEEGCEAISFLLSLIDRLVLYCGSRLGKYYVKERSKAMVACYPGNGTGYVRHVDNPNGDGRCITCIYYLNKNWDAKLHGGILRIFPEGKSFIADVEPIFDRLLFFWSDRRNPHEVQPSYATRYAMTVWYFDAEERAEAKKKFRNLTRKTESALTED

O=C(O)CNC(=O)c1c(O)c2c(n(CC3Cc4ccccc4C3)c1=O)COC2
IC50 (Egl nine homolog 1 [1]): < 10 nM

O=C(O)CNC(=O)c1c(O)c(Br)cc2c1ncn2Cc1ccccc1
IC50 (Prolyl hydroxylase EGLN3 [2]): 1 nM

O=C(O)CNC(=O)c1c(O)c(C(=O)NCc2ccccc2)cn(Cc2ccccc2)c1=O
EC50 (Prolyl hydroxylase EGLN3 [3]): 1 nM

O=C(O)CNC(=O)c1c(O)c2ccc(F)cc2n(Cc2ccccc2Cl)c1=O
IC50 (Prolyl hydroxylase EGLN3 [4]): 20 nM

O=C(O)CNC(=O)C1=C(O)c2ccccc2C1=O
IC50 (Egl nine homolog 1 [5]): 3 nM

O=C(O)c1cnn(-c2nc(N3CCCC3)c3cc(Oc4ccc(Cl)cc4)ccc3n2)c1
Activity (Hep 3B2): 96%

O=c1c(-c2cccnc2)c[nH]n1-c1cc(N2CCCCC2)ncn1
IC50 [6]: < 30000 nM

O=C(O)CNC(=O)c1c(O)c2cc(-c3ccc(Oc4ccccc4)cc3)ccc2oc1=O
inhibition (Egl nine homolog 1 [7]): 100%

O=C(O)CNC(=O)c1ncc(-c2ccc3ccccc3c2)cc1O
IC50 (Prolyl hydroxylase EGLN3 [8]): 17 nM
IC50 (Egl nine homolog 1 [9]): 17 nM

N#Cc1ccccc1Cn1c(=O)c(C(=O)NCC(=O)O)c(O)n(Cc2ccccc2)c1=O
IC50 (Prolyl hydroxylase EGLN3 [4]): 0.8 nM
EC50 (Prolyl hydroxylase EGLN3 [3]): 400 nM

O=C(Cc1ccc2ccccc2c1)Nc1cnc(-n2cccn2)nc1O
IC50 (Egl nine homolog 1 [1]): 0.7 nM

O=C(O)CNC(=O)c1c(O)c2c(Cl)c(Cl)c(Cl)n2n(Cc2ccccc2)c1=O
inhibition (Egl nine homolog 1 [10]): 99%

O=C(O)c1cnn(-c2nc3cc(OC(F)(F)F)c(Cl)cc3[nH]2)c1
A50 (Homo sapiens [11]): 50 µM
IC50 (Egl nine homolog 1 [12]): 100 nM

N#Cc1cn(-c2c[nH]n(-c3cc(N4CC(F)(F)C4)ncn3)c2=O)nn1
IC50 [6]: 70 nM

Cc1ccccc1-c1ccc2nc(-n3cc(C(=O)O)cn3)[nH]c(=O)c2c1
Activity (Hep 3B2): 60%

COc1ccc(-n2c(=O)[nH]c3cc(C(=O)NCc4ccc(Cl)cc4)ncc3c2=O)nc1OC
IC50 (Prolyl hydroxylase EGLN3 [2]): 1 nM
EC50 (Prolyl hydroxylase EGLN3 [3]): 1000 nM

Cc1cccc(CN2CCC3(CC2)C(=O)N(c2ccc(-c4ccccc4)cc2)c2ccc(C(=O)O)cc23)n1
IC50 (Egl nine homolog 1 [1]): 0.7 nM

Cc1nc(C(=O)NCC(=O)O)c(O)c2ccc(Oc3ccccc3)cc12 [ROXADUSTAT]
Activity (Homo sapiens [13]): -20%
Activity (Homo sapiens [14]): 1 g/dL
Activity (Homo sapiens [15]): 2.1 g/dL
Activity (Homo sapiens [16]): 1 g/dL
Activity (Homo sapiens [17]): 1.4 g/dL

Cc1c(O)c(C(=O)NCC(=O)O)c(=O)n(Cc2ccccc2)c1C
EC50 (Prolyl hydroxylase EGLN3 [3]): > 10000 nM

O=C(O)CNC(=O)c1ccc(-c2ccc3ccccc3c2)cn1
IC50 (Prolyl hydroxylase EGLN3 [8]): > 500000 nM
IC50 (Egl nine homolog 1 [9]): > 500000 nM

Cn1c(=O)c(C(=O)CCC(=O)O)c(O)c2ccc(Br)cc21
IC50 [18]: 13000 nM

Cn1c(=O)c(C(=O)NCC(=O)O)c(O)c2sccc21
IC50 (Egl nine homolog 1 [5]): 3 nM

COc1ccc(-n2c(=S)[nH]c3cc(C(=O)NCc4ccc(Cl)cc4)sc3c2=O)nc1OC
IC50 (Prolyl hydroxylase EGLN3 [2]): 1 nM
EC50 (Prolyl hydroxylase EGLN3 [3]): 1000 nM

Cn1c(=O)c(C(=O)NCC(=O)O)c(O)c2ccc(Br)cc21
IC50 [18]: 111 nM
IC50 [19]: 351 nM

CC(C)(C)c1ccc(Cn2nc(-c3ccc(Cl)cc3)c(O)c(C(=O)NCC(=O)O)c2=O)cc1
IC50 (Prolyl hydroxylase EGLN3 [4]): 0.8 nM
EC50 (Prolyl hydroxylase EGLN3 [3]): 400 nM

COc1ccc(-n2c(=S)[nH]c3sc(C(=O)NCc4ccc(Cl)cc4)c(C)c3c2=O)nc1OC
IC50 (Prolyl hydroxylase EGLN3 [2]): 1 nM
EC50 (Prolyl hydroxylase EGLN3 [3]): 1000 nM

O=C(O)CNC(=O)c1c(O)c2c(n(Cc3ccc(C(F)(F)F)cc3)c1=O)CSC2
IC50 (Egl nine homolog 1 [1]): < 10 nM

O=C(O)CNC(=O)c1c(O)cc(-c2cc(F)cc(Cl)c2)c2ncnn12
EC50 [20]: 5900 nM

O=C(O)CNC(=O)c1c(O)n2ccccc2nc1=O
EC50 (Prolyl hydroxylase EGLN3 [3]): > 10000 nM

O=C(O)CNC(=O)c1c(O)c2c(n(Cc3ccc(C(F)(F)F)cc3)c1=O)CN(C(=O)C1CC1)C2
IC50 (Egl nine homolog 1 [1]): < 10 nM

O=C(O)CCC(=O)C1=C(O)c2ccc(Cl)cc2C2(CCOCC2)C1=O
IC50 (Egl nine homolog 1 [5]): < 100 nM

O=C(O)CNC(=O)c1nc(-c2cn(Cc3ccccc3)nn2)c2snc(-c3ccc(Cl)cc3)c2c1O
inhibition (Egl nine homolog 1 [21]): 100%

O=C(O)CNC(=O)c1c(O)c(C(=O)NCc2ccccc2)c(O)n(Cc2ccccc2)c1=O
EC50 (Prolyl hydroxylase EGLN3 [3]): 1 nM

CC(C)(C)c1ccc(Cn2c(-c3c(Cl)cccc3Cl)nc(O)c(C(=O)NCC(=O)O)c2=O)cc1
IC50 (Prolyl hydroxylase EGLN3 [4]): 0.8 nM
EC50 (Prolyl hydroxylase EGLN3 [3]): 400 nM

O=C(O)CNC(=O)c1c(O)c(-c2cccnc2)cc2nccnc12
IC50 (Prolyl hydroxylase EGLN3 [2]): 1 nM
EC50 (Prolyl hydroxylase EGLN3 [3]): 100 nM

O=C(O)CNC(=O)C1=C(O)c2ccc(Cl)cc2C2(CCOCC2)C1=O
IC50 (Egl nine homolog 1 [5]): < 100 nM

CC(C)(C)OC(=O)N1CCN(Cc2ccn(Cc3ccc(Cl)cc3)c(=O)c2O)CC1 [IZILENDUSTAT]
EC50 (Egl nine homolog 1 [22]): 17000 nM
Activity (Mus musculus): 2%

COc1ccc(-n2c(=O)[nH]c3cc(C(=O)NCc4ccc5c(c4)OCO5)sc3c2=O)nc1OC
IC50 (Prolyl hydroxylase EGLN3 [2]): 1 nM
EC50 (Prolyl hydroxylase EGLN3 [3]): 1000 nM

O=C(O)CNC(=O)c1nc(Cl)c2ccccc2c1O
Activity (Homo sapiens [23]): 1.1 g/dL
Activity (Homo sapiens [24]): 76%
Activity (Homo sapiens [25]): 1.9 g/dL
Activity (Homo sapiens [26]): 60%
Activity (Homo sapiens [27]): 1.3 g/dL
Activity (Homo sapiens [28]): 2.4 g/dL
fold change (FC) (Homo sapiens [29]): 14.5
Activity (Homo sapiens [30]): 1.4 g/dL
Activity (Homo sapiens [31]): 50%
fold change (FC) (Homo sapiens [32]): 12.7
fold change (FC) (Homo sapiens [33]): 30.8

O=C(O)CNC(=O)c1c(O)ccc2cc(-c3ccccc3)cnc12
IC50 (Prolyl hydroxylase EGLN3 [2]): 1 nM

O=C(O)CNC(=O)c1c(O)c2cc(Cl)cc(C#Cc3ccccc3)c2sc1=O
inhibition (Egl nine homolog 1 [7]): 99%

O=C(O)CNC(=O)c1c2ncn(Cc3ccccc3)c2cc2c1ncn2Cc1ccccc1
IC50 (Prolyl hydroxylase EGLN3 [2]): 1 nM

Cn1c(=O)c(C(=O)NCC(=O)O)c(O)c2ccc(-c3cccnc3)nc21
IC50 (Egl nine homolog 1 [5]): < 50 nM
